Data taken from ChEMBL document CHEMBL1129228, “Naphtho-fused azepines as potent growth hormone secretagogues” (Bioorg Med Chem Lett, 1997).
pEC50: −log10 of the molar value. Square brackets hold non-standard residues; d marks the D form. Peptide text beside a SMILES is read from it. ξ: configuration not given here. 1Nal = N[C@@H](Cc1cccc2ccccc12)C(=O)O; ξ1Nal = NC(Cc1cccc2ccccc12)C(=O)O; 3Amb = NCc1cccc(C(=O)O)c1

Legend:
[1] = organism: Rattus norvegicus; test: Compound was evaluated for its potency using rat pituitary cell assay; type: functional; conditions: Pituitary gland cell, read-out: ED50 (the source's name)
[2] = Oral bioavailability determined in rats; type: ADME, organism-based; conditions: rat, in vivo

Row | Structure (SMILES) | pEC50 [1] | bioavailability [2]
1 | Cc1nnc(-c2cscc2-c2ccc(CN3C(=O)[C@H](NC(=O)CC(C)(C)N)CCc4c3ccc3ccccc43)cc2)o1 | 7.43 | 
2 | CC(C)(N)CC(=O)N[C@@H]1CCc2c(ccc3ccccc23)N(Cc2ccc(-c3ccccc3-c3nn[nH]n3)cc2)C1=O | 8.40 | < 5%
3 | CC(C)(N)C(=O)N[C@@H]1CCc2ccccc2N(Cc2ccc(-c3ccccc3-c3nn[nH]n3)cc2)C1=O | 7.52 | 
4 | CC(C)(N)CC(=O)N[C@@H]1CCc2ccccc2N(Cc2ccccc2)C1=O | 6.00 | 
5 | CC(C)(N)CC(=O)N[C@@H]1CCc2ccccc2N(Cc2ccc(-c3ccccc3)cc2)C1=O | 5.77 | 
6 | CC(C)(N)CC(=O)N[C@@H]1CCc2ccccc2N(Cc2ccc(-c3ccccc3-c3nn[nH]n3)cc2)C1=O | 6.90 | 
7 | CC(C)(N)CC(=O)N[C@@H]1CCc2c(ccc3ccccc23)N(Cc2ccccc2)C1=O | 5.07 | 
8 | NC1(C(=O)N[C@@H]2CCc3c(ccc4ccccc34)N(Cc3ccc(-c4ccccc4-c4nn[nH]n4)cc3)C2=O)CC1 | 6.76 | 
9 | Cc1nnc(-c2cscc2-c2ccc(CN3C(=O)[C@H](NC(=O)CC(C)(C)N)CCc4ccccc43)cc2)o1 | 7.21 | 
10 | C[C@H](N)C(=O)N[C@@H](Cc1ccccc1)C(=O)N[C@@H](Cc1cccc2ccccc12)C(=O)N[C@@H](Cc1ccccc1)C(=O)N[C@@H](CCCCN)C(N)=O (H-AF[1Nal]FK-NH2) | 8.70 | 
11 | NCCCC[C@H](NC(=O)[C@H](Cc1ccccc1)NC(=O)C(Cc1cccc2ccccc12)NC(=O)c1cccc(CN)c1)C(N)=O (some centres not stated) (H-[3Amb][ξ1Nal]FK-NH2) | 8.15 | 
